Earlier results in publication PMC6172068 (Cancer Science, 2018).

Key:
[1] = test system: FLT3 mutation-positive R/R AML; settings: cited from earlier work
AML [2] = settings: sorafenib plus intensive chemotherapy, patients aged <60 years; cited from earlier work
AML [3] = settings: single agent; cited from earlier work

## CC1(COc2ccc3c(c2)ncn3-c2ccc3cccc(N4CCC(N)CC4)c3n2)COC1 [crenolanib]
[1]
  antileukemic activity: strong antileukemic activity

## CNC(=O)c1cc(Oc2ccc(NC(=O)Nc3ccc(Cl)c(C(F)(F)F)c3)cc2)ccn1 [sorafenib]
AML [2]
  3-year event-free survival rate: 40%

## CO[C@@H]1[C@H](N(C)C(=O)c2ccccc2)C[C@H]2O[C@]1(C)n1c3ccccc3c3c4c(c5c6ccccc6n2c5c31)C(=O)NC4 [midostaurin]
AML [3]
  CR: not achieved
